Results taken from ChEMBL document CHEMBL5365497, “Developing Novel Coumarin-Containing Azoles Antifungal Agents by the Scaffold Merging Strategy for Treating Azole-Resistant Candidiasis” (J Med Chem, 2023).
Values after ≈ are worked out from the molar mass of the structure shown. Active and inactive are the calls of the source. The calls are words filed in the database; no cut-off is given here.

Columns and labels:
Candida albicans [1] = test: Antifungal activity against fluconazole-resistant Candida albicans 904 assessed as fungal growth inhibition measured for 48 hrs by CLSI based microdilution method; format: functional
Pichia kudriavzevii = test: Antifungal activity against Pichia kudriavzevii assessed as fungal growth inhibition by CLSI based microdilution method; format: functional
Candida albicans [2] = test: Antifungal activity against fluconazole-resistant Candida albicans 632 assessed as fungal growth inhibition by CLSI based microdilution method; format: functional
Candida albicans [3] = test: Antifungal activity against fluconazole-resistant Candida albicans 17# assessed as fungal growth inhibition by CLSI based microdilution method; format: functional
Candida albicans [4] = test: Antifungal activity against Candida albicans CPCC400616 assessed as fungal growth inhibition by CLSI based microdilution method; format: functional
Candida albicans [5] = test: Antifungal activity against Candida albicans SC5314 assessed as destruction of cell wall at 16 ug/ml incubated for 24 hrs by TEM analysis; format: functional, organism-based; conditions: dose 16.0 µg/ml
Candida albicans [6] = test: Antifungal activity against fluconazole-resistant Candida albicans CaR assessed as fungal growth inhibition by CLSI based microdilution method; format: functional
Candida albicans [7] = test: Antifungal activity against Candida albicans SC5314 assessed as fragmented nuclei at 16 ug/ml incubated for 24 hrs by TEM analysis; format: functional, organism-based; conditions: dose 16.0 µg/ml
Candida albicans [8] = test: Antifungal activity against Candida albicans SC5314 assessed as destruction of cell membrane at 16 ug/ml incubated for 24 hrs by TEM analysis; format: functional, organism-based; conditions: dose 16.0 µg/ml
Nakaseomyces glabratus = test: Antifungal activity against Candida glabrata assessed as fungal growth inhibition by CLSI based microdilution method; format: functional
Candida albicans [9] = test: Antifungal activity against fluconazole-resistant Candida albicans 904 assessed as fungal growth inhibition by CLSI based microdilution method; format: functional
Candida albicans [10] = test: Antifungal activity against Candida albicans SC5314 assessed as fungal growth inhibition by CLSI based microdilution method; format: functional
Candida parapsilosis = test: Antifungal activity against Candida parapsilosis assessed as fungal growth inhibition by CLSI based microdilution method; format: functional; conditions: Lodderomyces parapsilosis
Candida tropicalis = test: Antifungal activity against Candida tropicalis assessed as fungal growth inhibition by CLSI based microdilution method; format: functional
Candida albicans [11] = test: Antifungal activity against fluconazole-resistant Candida albicans 901 assessed as fungal growth inhibition by CLSI based microdilution method; format: functional
Cryptococcus neoformans = test: Antifungal activity against Cryptococcus neoformans assessed as fungal growth inhibition by CLSI based microdilution method; format: functional
Cytochrome P450 1A2 = biological target: T1, Cytochrome P450 1A2 (Homo sapiens, UniProt P05177); test: Inhibition of CYP1A2 in human liver microsomes using phenacetin as substrate preincubated for 5 mins followed by NADPH addition by LC-MS/MS analysis; format: ADME, Microsome
T1 sequence (P05177 whole entry): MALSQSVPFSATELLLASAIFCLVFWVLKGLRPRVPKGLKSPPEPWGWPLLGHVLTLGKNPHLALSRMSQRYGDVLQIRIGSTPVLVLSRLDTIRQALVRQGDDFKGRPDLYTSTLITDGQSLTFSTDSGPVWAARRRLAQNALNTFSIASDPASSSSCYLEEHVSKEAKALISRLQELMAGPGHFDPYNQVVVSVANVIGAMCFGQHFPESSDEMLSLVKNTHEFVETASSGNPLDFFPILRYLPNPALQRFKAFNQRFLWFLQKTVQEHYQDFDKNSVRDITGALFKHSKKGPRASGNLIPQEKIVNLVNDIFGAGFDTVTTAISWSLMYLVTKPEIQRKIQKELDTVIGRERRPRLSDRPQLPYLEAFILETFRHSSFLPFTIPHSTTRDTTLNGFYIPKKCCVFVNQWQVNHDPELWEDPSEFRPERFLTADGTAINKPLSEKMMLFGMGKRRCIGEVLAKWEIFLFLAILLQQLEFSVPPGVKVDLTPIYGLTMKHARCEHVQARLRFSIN

[12] = Stability in mouse plasma assessed as half life at 1 uM measured for 180 mins by LC-MS/MS analysis; format: ADME, cell-free
Cytochrome P450 2D6 = Cytochrome P450 2D6 (Homo sapiens, UniProt P10635); test: Inhibition of CYP2D6 in human liver microsomes using dextromethorphan as substrate preincubated for 5 mins followed by NADPH addition by LC-MS/MS analysis; format: ADME, Microsome
Sequence of Cytochrome P450 2D6 (P10635 whole entry): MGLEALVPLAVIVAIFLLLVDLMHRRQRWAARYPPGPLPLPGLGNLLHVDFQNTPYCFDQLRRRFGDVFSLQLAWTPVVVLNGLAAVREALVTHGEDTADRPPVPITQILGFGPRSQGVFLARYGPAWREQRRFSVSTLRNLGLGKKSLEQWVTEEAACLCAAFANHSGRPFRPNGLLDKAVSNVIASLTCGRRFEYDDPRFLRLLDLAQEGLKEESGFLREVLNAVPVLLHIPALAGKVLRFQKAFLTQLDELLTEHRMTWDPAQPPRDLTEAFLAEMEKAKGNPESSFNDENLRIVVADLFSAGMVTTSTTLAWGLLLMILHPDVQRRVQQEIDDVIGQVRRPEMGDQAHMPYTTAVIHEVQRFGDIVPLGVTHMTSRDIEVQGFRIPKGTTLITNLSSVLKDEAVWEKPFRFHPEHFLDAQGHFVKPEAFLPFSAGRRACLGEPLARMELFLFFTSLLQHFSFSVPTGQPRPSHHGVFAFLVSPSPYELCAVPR

[13] = Cytotoxicity against mouse J774.A1 cells assessed as cell growth inhibition by MTT assay; format: toxicity, cell-based
Cytochrome P450 2C9 = Cytochrome P450 2C9 (Homo sapiens, UniProt P11712); test: Inhibition of CYP2C9 in human liver microsomes using diclofenac as substrate preincubated for 5 mins followed by NADPH addition by LC-MS/MS analysis; format: ADME, Microsome
Sequence of Cytochrome P450 2C9 (P11712 whole entry): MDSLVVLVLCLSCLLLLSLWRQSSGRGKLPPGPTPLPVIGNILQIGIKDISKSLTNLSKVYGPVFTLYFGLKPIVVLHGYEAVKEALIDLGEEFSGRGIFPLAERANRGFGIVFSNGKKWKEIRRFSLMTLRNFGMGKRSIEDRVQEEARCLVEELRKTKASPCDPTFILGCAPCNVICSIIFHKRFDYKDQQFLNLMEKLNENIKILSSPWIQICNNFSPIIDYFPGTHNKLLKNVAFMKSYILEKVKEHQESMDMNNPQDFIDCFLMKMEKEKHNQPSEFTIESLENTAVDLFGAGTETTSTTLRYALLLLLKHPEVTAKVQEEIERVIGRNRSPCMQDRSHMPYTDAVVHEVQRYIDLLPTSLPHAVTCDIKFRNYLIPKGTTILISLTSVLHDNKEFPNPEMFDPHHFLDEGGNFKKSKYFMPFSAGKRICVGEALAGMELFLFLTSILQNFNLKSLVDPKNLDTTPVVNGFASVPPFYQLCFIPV

[14] = Stability in mouse plasma assessed as compound remaining at 1 uM measured for 180 mins by LC-MS/MS analysis; format: ADME, cell-free; conditions: read-out: Stability

## OC(Cn1cncn1)(Cn1cncn1)c1ccc(F)cc1F [FLUCONAZOLE]
Candida albicans [1]
  MFC: > 128 µg/mL
Pichia kudriavzevii
  MIC: 32 µg/mL (≈ 104 µM)
Candida albicans [2]
  MIC: > 128 µg/mL
Candida albicans [3]
  MIC: > 128 µg/mL
Candida albicans [4]
  MIC: 4 µg/mL (≈ 13.1 µM)
Candida albicans [5]
  Activity: inactive
Candida albicans [6]
  MIC: > 128 µg/mL
Candida albicans [7]
  Activity: Active
Candida albicans [8]
  Activity: Active
Nakaseomyces glabratus
  MIC: 32 µg/mL (≈ 104 µM)
Candida albicans [9]
  MIC: > 128 µg/mL
Candida albicans [10]
  MIC: 0.5 µg/mL (≈ 1.63 µM)
Candida parapsilosis
  MIC: 4 µg/mL (≈ 13.1 µM)
Candida tropicalis
  MIC: 2 µg/mL (≈ 6.53 µM)
Candida albicans [11]
  MIC: > 128 µg/mL
Cryptococcus neoformans
  MIC: 4 µg/mL (≈ 13.1 µM)

## Clc1ccc(COC(Cn2ccnc2)c2ccc(Cl)cc2Cl)c(Cl)c1 (centres undefined) [MICONAZOLE]
Cytochrome P450 1A2
  IC50: 2620 nM
[12]
  half-life at 1 µM: > 6 h
Pichia kudriavzevii
  MIC: 0.5 µg/mL (≈ 1.2 µM)
Cytochrome P450 2D6
  IC50: 875 nM
Candida albicans [4]
  MIC: 0.25 µg/mL (≈ 0.601 µM)
Nakaseomyces glabratus
  MIC: 0.5 µg/mL (≈ 1.2 µM)
[13]
  IC50: 22200 nM
Candida albicans [10]
  MIC: 0.03 µg/mL (≈ 0.0721 µM)
Candida parapsilosis
  MIC: 0.25 µg/mL (≈ 0.601 µM)
Cytochrome P450 2C9
  IC50: 115 nM
Candida tropicalis
  MIC: 1 µg/mL (≈ 2.4 µM)
[14]
  remaining at 3 h, 1 µM: 94.9%
Cryptococcus neoformans
  MIC: 0.25 µg/mL (≈ 0.601 µM)
